Experimental data reported in patent US20030186315A1, “ADMINISTRATION OF AN AGENT WHICH DECREASES PROCESSING OF AMYLOID PRECURSOR PROTEIN” (priority 1999, published 2003).

Assays:
[1] = test system: NT2N cells; assay: Indirect immunofluorescence microscopy of cell surface distribution of SFV-expressed APP695 in NT2N cells; type: cell-based, human; details: SFV-infected NT2N cells, 20 μg/ml BFA after infection
Protocol: Since BFA treatment results in retention of all newly synthesized proteins in the ER, additional experiments were conducted to confirm that the generation of Aβ42 in the ER was not due to retention of newly synthesized proteases not being delivered to their proper site of action. Accordingly, an ER-retention signal was placed in APP695 in which the third and fourth amino acids from the C-terminus were changed to lysine (APP695ΔKK) . This lysine motif is sufficient to retain heterologous transmembrane proteins in the ER and intermediate compartment. In these experiments, recombinant Semliki Forest virus (SFV) vectors to express APP695ΔKK. Previous studies have shown that despite high levels of SFV-mediated APP expression, SFV infected NT2N cells display a high degree of fidelity in processing APP (Wertkin et al. 1993 Proc. Natl. Acad. Sci. USA 90:9513-9517; Turner et al. 1996 J. Biol. Chem. 271:8966-8970). […] To determine if APP695ΔKK was in fact retained in the ER, indirect immunofluorescence microscopy was used to monitor both intracellular and cell surface distribution of SFV-expressed APP695 and APP695ΔKK. While intracellular levels of APP695 and APP695ΔKK appeared similar, only APP695 was expressed on the cell surface. […]

[2] = test system: NT2N neurons; assay: Brefeldin A treatment of [35S]methionine-labeled NT2N neurons, immunoprecipitation of APP fragments from cell lysates and media; type: cell-based, human
Source text: The detection of APPβ in the cell lysate of NT2N neurons, together with the presence of Aβ40 and Aβ42 (Turner et al. 1996 J. Biol. Chem. 271:8966-8970), establish that an intracellular β-secretase pathway(s) exists in these cells. At present, no other cell line has been reported to produce detectable levels of intracellular APPβ from endogenous or over-expressed wild-type APP (Seubert et al. 1993 Nature 361:260-263; Haass et al. 1995a Nature Med. 1:1291-1296; Thinakaran et al. 1996b J. Biol. Chem. 271:9390-9397). […] In the absence of BFA, APPFL, APPβ, and Aβ were recovered from the cell lysates while APPα, APPβ, and Aβ were detected in the media of NT2N neurons.
Cultured NT2N neurons were starved in methionine-free DMEM HG (Life Technologies, Inc., Gaithersburg, Md.) for 30 minutes prior to incubation in fresh methionine-free DMEM HG containing 0.5 mCi/ml of [^35S]methionine (sp act. 1000 Ci/mmol; NEN-DuPont, Boston, Mass.). […] Quantitation of bands in the autoradiogram was performed using the ImageQuant software (Molecular Dynamics Inc. Sunnyvale, Calif.) in accordance with procedures described by Turner et al. 1996 J. Biol. Chem. 271:8966-8970. Radiolabeled proteins in SDS-PAGE gels and nitrocellulose replicas were also analyzed by standard autoradiographic methods. […]

[3] = test system: NT2N neurons; assay: ELISA distinguishing Aβ40 and Aβ42 in cell lysates and medium of BFA-treated NT2N neurons; type: cell-based, human
Protocol: Cell lysates and medium from the cells were then analyzed using an ELISA system which quantitatively distinguishes between Aβ40 and Aβ42 to ascertain whether alteration of Aβ levels by BFA was the result of altered levels of Aβ40, Aβ42 or both. Suzuki et al. 1994 Science 264:1336-1340. Results from the ELISA correlated with the immunoprecipitation data in that BFA abolished secretion of Aβ into the medium and reduced overall expression of intracellular Aβ by approximately 60%. However, it was the complete loss of […] that accounted for this decrease. […] Thus, γ-secretases appear to be active in the endoplasmic reticulum, but only to yield Aβ42. Further, it is believed that Aβ42 is preferentially generated in the ER while Aβ40, is generated in more distal components of the exocytic pathway.
NT2N neurons were pretreated with 20 Ag/ml of BFA for 1 hour before the addition of 0.5 mCi/ml of [^35S] methionine to the cultures for 16 hours in the absence or presence of BFA. The cell lysates and media were processed for immunoprecipitation as described in Example 3. For deglycosylation of APPG, the immunoprecipitates containing APPβ were washed twice in sodium phosphate buffer (20 mmol/l, pH 7.2) and boiled for 2 minutes in 10 μl of 1% SDS. The samples were then boiled for an additional 2 minutes after adding 90 μl of the sodium phosphate buffer with sodium azide (10 mmol/l), EDTA (50 mmol/l), and n-Octylglucoside (0.5% w/v). After this denaturation step, deglycosylation was initiated by the addition of 2 mU Neuraminidase (Arthrobacter; Boehringer Mannheim, Indianapolis, Ind.), 2.5 mU 0-Glycosidase (Boehringer Mannheim, Indianapolis, Ind.), and 0.4 U N-Glycosidase F (Boehringer Mannheim, Indianapolis, IN). The samples were then incubated at 37° C. for 18 hours and deglycosylated APPβ was run on 7.5% SDS-PAGE gels as described in Example 2.

[4] = test system: human kidney 293 cells stably transfected with APPsw cDNA; details: non-neuronal 293 cells expressing APPsw; cited from earlier work

C[C@H]1CCC/C=C/[C@@H]2C[C@H](O)C[C@H]2[C@H](O)/C=C/C(=O)O1 [BFA, Brefeldin A]
surface expression of APP695 [1]: blocked | secretion of APPα, APPβ, and Aβ into the medium ([2]; 20 μg/ml BFA, immunoprecipitation of media): completely abolished | electrophoretic mobility of APPβ from BFA-treated versus untreated cells ([2]; SDS-PAGE of immunoprecipitated APPβ): migrated more quickly | intracellular Aβ40 ([3]; cell lysate): complete loss | intracellular Aβ42 ([3]; cell lysate): largely unaffected | reduction of overall expression of intracellular Aβ ([3]; cell lysate): approximately 60% | secretion of Aβ into the medium ([3]; medium): abolished | APPβsw and Aβ production [4]: completely eliminates
